Among the test systems are SNB-19 CNS; CCRF-CEM leukemia; SF-268 CNS; SK-OV-3 ovarian; SR leukemia; SK-MEL-2 melanoma; EKVX NSCLC; HCC-2998 colon; UO-31 renal; NCI-H460 lung; MDA-MB-435.
Holding throughout (test): NCI anticancer screen, dose series, 48 h

The values that follow come from PubChem BioAssay (NCI).

Values joined by “and” are separate entries in the source; they are usually repeats but may differ in a detail not shown here. Equal entries are not always repeated.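 Values below derive from 48-hour exposures of cells grown in 96-well plates, with endpoints linearly interpolated between the two concentrations bracketing the appropriate inhibition level. At the GI50, growth is halved. TGI is the concentration that stops growth completely.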

Consider `O=C(Cc1ccccc1)NN1C(=O)C(Cl)C1c1ccccc1Cl` (configuration not stated), for which the TGI is > 100 µM with SNB-19 CNS; 55.8 µM in the experiment with CCRF-CEM leukemia; > 100 µM with SF-268 CNS; > 100 µM in the experiment with SK-OV-3 ovarian; 64.4 µM in the experiment with SR leukemia; > 100 µM in the experiment on SK-MEL-2 melanoma. For the same compound, the TGI in the experiment with EKVX NSCLC, in the experiment on HCC-2998 colon, with UO-31 renal and with NCI-H460 lung was > 100 µM in each case.

For `Cc1cc2ncn(-c3nc4ccccc4nc3C(C#N)S(C)(=O)=O)c2cc1C` (configuration not stated), the TGI with SNB-19 CNS, in the experiment with CCRF-CEM leukemia, in the experiment with SF-268 CNS, with SK-OV-3 ovarian, with SR leukemia and in the experiment with SK-MEL-2 melanoma was > 100 µM throughout. The TGI with EKVX NSCLC, in the experiment on HCC-2998 colon, in the experiment with UO-31 renal and in the experiment on NCI-H460 lung was > 100 µM throughout.

On to `N#CCCn1[nH]c(=O)c(Cl)c(Cl)c1=O`, for which the TGI with SNB-19 CNS was 29 µM; in the experiment with SF-268 CNS, 32 µM; with SR leukemia it was 35.5 µM; with SK-MEL-2 melanoma it was 29.6 µM; in the experiment on EKVX NSCLC, 12.5 µM; with HCC-2998 colon it was 26 µM. In addition, the TGI with UO-31 renal is 34.7 µM; with NCI-H460 lung, 28.3 µM.

As to `COC(=O)C(=O)C(C(=O)OC)C(=O)C(=O)Nc1c(C)cccc1C` (configuration not stated), the TGI with SNB-19 CNS, in the experiment with CCRF-CEM leukemia, in the experiment with SF-268 CNS, with SK-OV-3 ovarian, in the experiment with SR leukemia and in the experiment on SK-MEL-2 melanoma was > 100 µM in each case. Moreover, the TGI with EKVX NSCLC, in the experiment on HCC-2998 colon, in the experiment on UO-31 renal and in the experiment with NCI-H460 lung was > 100 µM each time.

Consider `COc1cc2c(c(OC)c1OC)-c1ccc(SC)c(=O)cc1[C@@H](NCc1ccc(F)cc1)CC2`, for which the TGI is 75 µM with SNB-19 CNS; 10.2 µM and > 100 µM in the experiment on CCRF-CEM leukemia; 12.8 µM in the experiment on SR leukemia; 75 µM and > 100 µM in the experiment on EKVX NSCLC; 11.3 µM in the experiment with HCC-2998 colon; 75 µM and 95.9 µM in the experiment on UO-31 renal. Also, the GI50 in the experiment on EKVX NSCLC and with UO-31 renal was < 0.0075 µM each time.

`CC(C)N(C(=O)C12C3C4C1C1C2C3C41C#N)C(C)C` (configuration not stated): the TGI in the experiment on SNB-19 CNS is > 100 µM; in the experiment on CCRF-CEM leukemia, > 85.1 µM; in the experiment with SF-268 CNS it was > 100 µM; with SK-OV-3 ovarian it was > 100 µM; in the experiment with SR leukemia, 45 µM; in the experiment with SK-MEL-2 melanoma, > 100 µM. Besides, the TGI in the experiment on EKVX NSCLC, in the experiment on HCC-2998 colon, with UO-31 renal and in the experiment with NCI-H460 lung was > 100 µM in each case.

On to `CC1=NN(c2nc(N)nc(NS(=O)(=O)c3cc(C)c(Cl)cc3S)n2)C(C)(C)C1`, for which the TGI in the experiment with SNB-19 CNS, in the experiment on CCRF-CEM leukemia, in the experiment with SF-268 CNS, in the experiment with SK-OV-3 ovarian, in the experiment on SR leukemia and with SK-MEL-2 melanoma was > 10 µM throughout. The TGI in the experiment on EKVX NSCLC, in the experiment on HCC-2998 colon, in the experiment on UO-31 renal and in the experiment on NCI-H460 lung was > 10 µM throughout.

Consider `CN(C)CCNc1ccc2ncn3c4ccccc4c(=O)c1c23`, for which the TGI is 47.5 µM in the experiment on SNB-19 CNS; > 100 µM with CCRF-CEM leukemia; 20.2 µM with SF-268 CNS; 16.2 µM with SK-OV-3 ovarian; > 100 µM in the experiment on SR leukemia; 10.1 µM in the experiment with SK-MEL-2 melanoma. Moreover, the figures for the TGI with UO-31 renal and in the experiment with NCI-H460 lung were 17.5 µM and 6.86 µM, respectively.

As to `C1CNOCCCONCCCNOCCCONC1`, the TGI in the experiment with SNB-19 CNS, in the experiment on CCRF-CEM leukemia, in the experiment with SF-268 CNS, in the experiment with SK-OV-3 ovarian, in the experiment with SK-MEL-2 melanoma and in the experiment with EKVX NSCLC was > 100 µM each time. The TGI was > 100 µM with UO-31 renal, > 100 µM with MDA-MB-435 and 94 µM with NCI-H460 lung.

Turning to `CC(C)(C)N=CN1C=Cc2nc3ccccc3cc2C1`, the TGI with SNB-19 CNS, in the experiment on CCRF-CEM leukemia, in the experiment on SF-268 CNS, in the experiment with SK-OV-3 ovarian, with SR leukemia and in the experiment on SK-MEL-2 melanoma was > 100 µM in each case. In addition, the TGI in the experiment on EKVX NSCLC, with HCC-2998 colon, with UO-31 renal and in the experiment on NCI-H460 lung was > 100 µM each time.

On to `Cn1c(=O)c2[nH]c(N=O)nc2n(C)c1=O`, for which the TGI in the experiment with SF-268 CNS, in the experiment on SK-OV-3 ovarian, with SK-MEL-2 melanoma, with EKVX NSCLC, in the experiment on HCC-2998 colon and with UO-31 renal was > 100 µM throughout. The TGI in the experiment on MDA-MB-435 and with NCI-H460 lung was > 100 µM throughout.

In the case of `CC(C)c1cccc(C(C)C)c1NC(=O)C(=O)Cc1nc2ccc([N+](=O)[O-])cc2[nH]c1=O`, the TGI with SNB-19 CNS, in the experiment with CCRF-CEM leukemia, in the experiment with SK-OV-3 ovarian, with SK-MEL-2 melanoma, in the experiment with EKVX NSCLC and in the experiment on HCC-2998 colon was > 100 µM each time. For the same compound, the TGI with UO-31 renal and in the experiment on NCI-H460 lung was > 100 µM throughout.

Consider `CCCCCCCC/C=C1\CCC(CN(C)C)C1=O` (configuration not stated), for which the TGI worked out at 30.4 µM in the experiment on SNB-19 CNS; 6.96 µM with CCRF-CEM leukemia; 21.2 µM with SF-268 CNS; 30.9 µM with SK-OV-3 ovarian; 13.1 µM with SR leukemia; 24.6 µM in the experiment on SK-MEL-2 melanoma. The TGI with EKVX NSCLC amounted to 21.6 µM; with HCC-2998 colon, 22 µM; with UO-31 renal, 25.2 µM; in the experiment on NCI-H460 lung it was 28.4 µM.

In the case of `CCOc1ccccc1N=Nc1ccc2oc(=O)c(C(C)=O)cc2c1`, the TGI in the experiment with SNB-19 CNS, in the experiment on CCRF-CEM leukemia, with SF-268 CNS, in the experiment with SK-OV-3 ovarian, in the experiment with SK-MEL-2 melanoma and in the experiment with EKVX NSCLC was > 100 µM in each case. The TGI in the experiment on HCC-2998 colon and in the experiment on UO-31 renal was > 100 µM each time.

For the compound `Nc1nncc2c1c(Br)cn2C1OC(CO)C(O)C1O` (configuration not stated), the TGI with SNB-19 CNS was > 100 µM; with CCRF-CEM leukemia it was > 100 µM; in the experiment with SF-268 CNS, > 100 µM; in the experiment on SK-OV-3 ovarian it was > 100 µM; in the experiment with SR leukemia it was > 100 µM; with SK-MEL-2 melanoma it was > 60.9 µM. The TGI in the experiment on EKVX NSCLC, in the experiment with HCC-2998 colon, in the experiment on UO-31 renal and with NCI-H460 lung was > 100 µM each time.
